# From ChEMBL document CHEMBL1201862, “PubChem BioAssay data set” (2004)
# Activity calls are given as the source filed them.
# Columns and labels:
# [1] = biological target: T1, DNA repair and recombination protein RAD54-like (Homo sapiens, UniProt Q92698); experiment: inhibitors of human RAD54 branch migration, confirmation, biochemical, fluorescence, cherry-picked samples, dose series (AID 651657); assay type: functional
# T1 sequence (Q92698 whole entry): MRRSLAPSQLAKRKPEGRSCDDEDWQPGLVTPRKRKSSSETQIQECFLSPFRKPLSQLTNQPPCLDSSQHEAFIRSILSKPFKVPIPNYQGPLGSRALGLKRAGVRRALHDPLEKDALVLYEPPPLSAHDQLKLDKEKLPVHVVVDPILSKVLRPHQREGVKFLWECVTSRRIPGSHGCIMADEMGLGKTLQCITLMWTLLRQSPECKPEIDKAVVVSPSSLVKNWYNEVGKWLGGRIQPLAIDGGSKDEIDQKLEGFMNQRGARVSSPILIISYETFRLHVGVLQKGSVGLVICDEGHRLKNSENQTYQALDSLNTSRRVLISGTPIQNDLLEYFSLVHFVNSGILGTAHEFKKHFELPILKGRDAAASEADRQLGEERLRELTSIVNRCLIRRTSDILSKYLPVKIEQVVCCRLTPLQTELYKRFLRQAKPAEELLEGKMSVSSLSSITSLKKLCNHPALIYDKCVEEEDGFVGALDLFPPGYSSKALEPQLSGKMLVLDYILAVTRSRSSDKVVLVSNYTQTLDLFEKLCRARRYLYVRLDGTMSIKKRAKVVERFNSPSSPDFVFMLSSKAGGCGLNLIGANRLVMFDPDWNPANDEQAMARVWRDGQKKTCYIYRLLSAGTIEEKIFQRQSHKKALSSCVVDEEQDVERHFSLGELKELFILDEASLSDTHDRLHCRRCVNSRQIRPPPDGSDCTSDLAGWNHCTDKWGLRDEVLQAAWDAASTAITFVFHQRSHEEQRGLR
# [2] = biological target: Glucose-6-phosphate 1-dehydrogenase (Homo sapiens, UniProt P11413); experiment: human G6PD enzyme inhibitors, dose response, selectivity assay for P. falciparum G6PD inhibitor project, biochemical, fluorescence (AID 504792); assay type: functional
# Chain of Glucose-6-phosphate 1-dehydrogenase (P11413 whole entry): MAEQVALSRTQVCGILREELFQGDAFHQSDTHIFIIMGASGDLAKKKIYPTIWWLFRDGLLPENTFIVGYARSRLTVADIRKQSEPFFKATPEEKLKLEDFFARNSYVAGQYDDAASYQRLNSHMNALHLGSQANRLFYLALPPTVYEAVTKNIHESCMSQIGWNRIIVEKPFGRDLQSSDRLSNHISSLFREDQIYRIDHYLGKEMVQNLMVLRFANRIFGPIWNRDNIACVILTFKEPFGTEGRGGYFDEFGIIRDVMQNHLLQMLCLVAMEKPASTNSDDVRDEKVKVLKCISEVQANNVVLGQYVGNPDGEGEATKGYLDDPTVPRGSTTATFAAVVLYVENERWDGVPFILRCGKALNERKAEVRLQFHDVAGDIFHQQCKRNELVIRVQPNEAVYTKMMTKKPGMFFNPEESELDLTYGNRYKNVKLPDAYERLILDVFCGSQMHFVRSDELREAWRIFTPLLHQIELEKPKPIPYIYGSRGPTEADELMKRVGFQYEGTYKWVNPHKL
# [3] = Vero E6 cell cytotoxicity, dose response, cytotoxicity control for non-replicating M. tuberculosis project, secondary assay (AID 492998); assay type: functional, VeroE6; settings: Vero C1008
# [4] = cells; assay type: functional
# [5] = tested on: Vero; experiment: Vero cell cytotoxicity, cytotoxicity control for flavivirus capping enzyme inhibitors (AID 588742); assay type: functional; settings: Chlorocebus sabaeus
# [6] = ZM109 Env clade C HIV-1 fusion inhibitors, dose response, HeLa effector, CEM target cells, luciferase, cherry-pick (AID 652058); assay type: functional, cell-based
# [7] = biological target: T2, Zinc finger protein mex-5 (Caenorhabditis elegans, UniProt Q9XUB2); experiment: MEX-5/TCR-2 RNA interaction inhibitors, dose response, biochemical, C. elegans, fluorescence polarization (AID 1960)
# T2 sequence (Q9XUB2 whole entry): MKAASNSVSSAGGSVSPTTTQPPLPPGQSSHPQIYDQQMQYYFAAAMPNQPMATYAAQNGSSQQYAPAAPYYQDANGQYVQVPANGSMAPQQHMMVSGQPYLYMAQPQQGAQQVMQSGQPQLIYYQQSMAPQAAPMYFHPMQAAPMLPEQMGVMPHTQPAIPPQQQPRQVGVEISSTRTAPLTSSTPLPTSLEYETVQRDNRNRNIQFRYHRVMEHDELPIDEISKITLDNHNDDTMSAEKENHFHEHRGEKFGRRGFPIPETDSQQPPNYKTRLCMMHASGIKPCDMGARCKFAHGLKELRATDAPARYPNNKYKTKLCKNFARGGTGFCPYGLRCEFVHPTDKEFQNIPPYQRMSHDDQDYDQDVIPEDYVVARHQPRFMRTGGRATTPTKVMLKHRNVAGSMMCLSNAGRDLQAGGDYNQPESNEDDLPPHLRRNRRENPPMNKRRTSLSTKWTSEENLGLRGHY
# [8] = biological target: T3, Protein RecA (Mycobacterium tuberculosis, UniProt P9WHJ3); experiment: Fluorescence Cell-Free Homogeneous Dose Retest to Identify Inhibitors of RecA-Intein Splicing Activity. [Related pubchem assays (depositor defined):AID2097, AID2223, AID489010, AID492950]; assay type: functional
# T3 sequence (P9WHJ3 whole entry): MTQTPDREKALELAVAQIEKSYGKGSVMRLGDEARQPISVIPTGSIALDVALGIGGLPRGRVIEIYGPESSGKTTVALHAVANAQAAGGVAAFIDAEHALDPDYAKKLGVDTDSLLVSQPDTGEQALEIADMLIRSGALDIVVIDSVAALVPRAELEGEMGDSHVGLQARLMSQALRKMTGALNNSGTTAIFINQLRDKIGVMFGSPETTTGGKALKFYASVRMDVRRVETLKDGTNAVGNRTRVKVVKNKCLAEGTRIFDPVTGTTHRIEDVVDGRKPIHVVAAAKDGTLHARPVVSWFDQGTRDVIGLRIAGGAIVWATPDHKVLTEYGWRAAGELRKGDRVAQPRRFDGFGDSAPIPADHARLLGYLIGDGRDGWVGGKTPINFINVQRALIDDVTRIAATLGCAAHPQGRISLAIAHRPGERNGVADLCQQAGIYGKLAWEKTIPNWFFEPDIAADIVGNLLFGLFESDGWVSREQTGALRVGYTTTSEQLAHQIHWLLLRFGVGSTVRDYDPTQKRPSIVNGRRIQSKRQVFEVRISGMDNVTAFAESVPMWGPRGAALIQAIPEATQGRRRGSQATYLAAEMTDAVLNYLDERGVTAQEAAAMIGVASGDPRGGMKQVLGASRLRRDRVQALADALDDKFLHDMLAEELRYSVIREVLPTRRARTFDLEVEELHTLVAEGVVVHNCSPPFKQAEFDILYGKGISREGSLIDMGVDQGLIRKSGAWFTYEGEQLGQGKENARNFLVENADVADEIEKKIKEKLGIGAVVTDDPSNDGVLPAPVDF
# [9] = biological target: Genome polyprotein (dengue virus type 2, UniProt P29990); experiment: Dengue-2 NS5 methyltransferase inhibitors, primary screen, biochemical, confirmation dose response (AID 588689); assay type: functional
# [10] = biological target: T4, Replicative DNA helicase DnaB (Mycobacterium tuberculosis, UniProt P9WMR3); experiment: DnaB intein splicing inhibitors, dose response, biochemical, cell-free fluorescence (AID 449749); assay type: functional
# T4 sequence (P9WMR3 whole entry): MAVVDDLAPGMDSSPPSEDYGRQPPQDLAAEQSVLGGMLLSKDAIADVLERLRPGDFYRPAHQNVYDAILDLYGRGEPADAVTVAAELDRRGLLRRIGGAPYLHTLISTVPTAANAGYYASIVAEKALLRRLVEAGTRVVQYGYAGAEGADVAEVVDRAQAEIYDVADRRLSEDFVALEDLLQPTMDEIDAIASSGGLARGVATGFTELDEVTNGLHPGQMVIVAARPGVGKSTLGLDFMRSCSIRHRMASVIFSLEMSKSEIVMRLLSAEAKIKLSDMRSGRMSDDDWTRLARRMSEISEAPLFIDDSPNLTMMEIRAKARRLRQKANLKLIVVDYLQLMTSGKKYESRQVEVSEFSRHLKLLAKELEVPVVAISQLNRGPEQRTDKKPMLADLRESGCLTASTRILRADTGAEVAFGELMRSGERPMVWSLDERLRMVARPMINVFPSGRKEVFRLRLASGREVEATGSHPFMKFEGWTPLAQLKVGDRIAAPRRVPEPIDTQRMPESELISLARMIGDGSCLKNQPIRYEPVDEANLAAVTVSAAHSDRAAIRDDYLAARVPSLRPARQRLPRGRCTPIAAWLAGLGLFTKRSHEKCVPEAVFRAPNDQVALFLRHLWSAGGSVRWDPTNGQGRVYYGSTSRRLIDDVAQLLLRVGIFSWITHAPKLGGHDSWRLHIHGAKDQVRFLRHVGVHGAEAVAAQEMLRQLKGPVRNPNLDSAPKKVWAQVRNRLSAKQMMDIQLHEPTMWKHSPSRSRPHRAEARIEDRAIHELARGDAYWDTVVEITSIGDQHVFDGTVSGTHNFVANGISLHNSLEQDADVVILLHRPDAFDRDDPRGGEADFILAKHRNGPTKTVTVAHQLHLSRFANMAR
# [11] = biological target: Large T antigen (Simian virus 40, UniProt P03070); assay type: functional, Betapolyomavirus macacae;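 note: Confirmatory-stage PubChem screen for compounds that inhibit SV40 T antigen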
# [12] = biological target: T5, RNA-binding protein pos-1 (Caenorhabditis elegans, UniProt G5EF15); experiment: inhibitors of POS-1/mex-3 RNA binding, dose response, biochemical, fluorescence polarization (AID 1964);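 note: purified POS-1 fused to maltose binding protein made in E. coli; potency of compounds blocking POS-1 binding to fluorescent RNA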
# T5 sequence (G5EF15 whole entry): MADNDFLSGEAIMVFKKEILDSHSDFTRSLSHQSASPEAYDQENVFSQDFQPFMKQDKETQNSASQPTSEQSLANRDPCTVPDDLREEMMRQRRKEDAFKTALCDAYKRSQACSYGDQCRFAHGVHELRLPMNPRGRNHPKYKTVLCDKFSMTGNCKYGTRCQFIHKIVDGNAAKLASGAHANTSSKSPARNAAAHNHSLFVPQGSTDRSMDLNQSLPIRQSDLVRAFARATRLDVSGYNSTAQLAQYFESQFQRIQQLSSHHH
# [13] = biological target: Nonstructural protein 1 (Influenza A virus, UniProt Q194T2); assay type: functional, Influenza A virus (A/California/07/2009(H1N1))
# Chain of Nonstructural protein 1 (Q194T2 whole entry): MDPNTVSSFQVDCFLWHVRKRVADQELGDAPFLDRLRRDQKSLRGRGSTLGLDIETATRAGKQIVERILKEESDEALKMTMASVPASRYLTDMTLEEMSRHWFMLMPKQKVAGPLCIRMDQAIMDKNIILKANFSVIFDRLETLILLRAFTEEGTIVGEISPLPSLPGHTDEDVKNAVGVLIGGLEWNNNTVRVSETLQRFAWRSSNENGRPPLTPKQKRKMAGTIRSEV
# [14] = biological target: Beta-galactosidase (Escherichia coli, UniProt Q8VNN2); experiment: PubChem AID 485352; assay type: functional
# Chain of Beta-galactosidase (Q8VNN2 whole entry): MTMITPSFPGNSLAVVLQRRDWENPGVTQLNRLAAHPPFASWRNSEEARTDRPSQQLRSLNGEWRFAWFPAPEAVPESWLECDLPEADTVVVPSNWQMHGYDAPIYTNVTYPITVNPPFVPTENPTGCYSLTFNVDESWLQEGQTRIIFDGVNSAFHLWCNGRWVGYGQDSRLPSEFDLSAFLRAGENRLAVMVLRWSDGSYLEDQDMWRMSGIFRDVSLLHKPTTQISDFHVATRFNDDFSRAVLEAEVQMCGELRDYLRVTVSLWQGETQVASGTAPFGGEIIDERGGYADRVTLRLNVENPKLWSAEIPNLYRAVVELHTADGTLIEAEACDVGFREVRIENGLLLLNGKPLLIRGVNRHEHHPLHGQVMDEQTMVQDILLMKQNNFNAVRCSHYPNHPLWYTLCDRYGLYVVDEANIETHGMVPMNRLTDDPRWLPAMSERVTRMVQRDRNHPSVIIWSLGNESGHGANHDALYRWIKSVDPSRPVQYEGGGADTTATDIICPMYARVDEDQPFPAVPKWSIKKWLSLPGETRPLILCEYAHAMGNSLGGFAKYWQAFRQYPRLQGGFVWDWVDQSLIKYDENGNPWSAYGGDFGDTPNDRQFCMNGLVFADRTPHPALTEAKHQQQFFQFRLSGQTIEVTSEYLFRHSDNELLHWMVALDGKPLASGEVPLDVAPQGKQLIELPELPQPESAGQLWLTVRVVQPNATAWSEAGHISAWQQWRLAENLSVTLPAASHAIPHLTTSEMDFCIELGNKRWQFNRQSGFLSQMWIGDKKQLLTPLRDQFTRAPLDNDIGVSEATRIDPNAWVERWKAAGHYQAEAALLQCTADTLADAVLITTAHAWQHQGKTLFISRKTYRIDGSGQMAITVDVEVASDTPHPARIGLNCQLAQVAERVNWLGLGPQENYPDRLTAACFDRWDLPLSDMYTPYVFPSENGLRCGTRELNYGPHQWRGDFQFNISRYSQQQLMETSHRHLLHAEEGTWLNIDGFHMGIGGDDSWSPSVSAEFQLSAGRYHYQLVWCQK
# [15] = biological target: T6, Type-1 angiotensin II receptor (Homo sapiens, UniProt P30556); experiment: AT1 receptor antagonists, dose response, selectivity assay for APJ receptor antagonist project, cell-based, uHTS hits (AID 463214); assay type: functional;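 note: antagonist potency against angiotensin II stimulated AT1 response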
# T6 sequence (P30556 whole entry): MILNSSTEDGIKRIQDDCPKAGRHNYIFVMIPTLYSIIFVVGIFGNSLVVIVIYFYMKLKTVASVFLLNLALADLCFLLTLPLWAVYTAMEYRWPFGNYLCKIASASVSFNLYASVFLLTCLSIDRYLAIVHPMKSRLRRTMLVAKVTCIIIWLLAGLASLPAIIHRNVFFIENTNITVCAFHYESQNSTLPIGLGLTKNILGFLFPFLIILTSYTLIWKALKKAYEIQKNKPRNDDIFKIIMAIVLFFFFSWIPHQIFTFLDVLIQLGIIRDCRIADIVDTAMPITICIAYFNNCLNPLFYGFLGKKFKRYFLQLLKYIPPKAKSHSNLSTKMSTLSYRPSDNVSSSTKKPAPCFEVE
# [16] = biological target: T7, Fatty acid synthase (Homo sapiens, UniProt P49327); experiment: FAS thioesterase domain inhibitors, dose response, biochemical, endpoint fluorescence intensity, uHTS hits (AID 624327); assay type: functional;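 note: fluorescence from hydrolysis of an O-methyl fluorescein acyl ester substrate by the enzyme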
# T7 sequence (P49327 whole entry, the tested form may be a part): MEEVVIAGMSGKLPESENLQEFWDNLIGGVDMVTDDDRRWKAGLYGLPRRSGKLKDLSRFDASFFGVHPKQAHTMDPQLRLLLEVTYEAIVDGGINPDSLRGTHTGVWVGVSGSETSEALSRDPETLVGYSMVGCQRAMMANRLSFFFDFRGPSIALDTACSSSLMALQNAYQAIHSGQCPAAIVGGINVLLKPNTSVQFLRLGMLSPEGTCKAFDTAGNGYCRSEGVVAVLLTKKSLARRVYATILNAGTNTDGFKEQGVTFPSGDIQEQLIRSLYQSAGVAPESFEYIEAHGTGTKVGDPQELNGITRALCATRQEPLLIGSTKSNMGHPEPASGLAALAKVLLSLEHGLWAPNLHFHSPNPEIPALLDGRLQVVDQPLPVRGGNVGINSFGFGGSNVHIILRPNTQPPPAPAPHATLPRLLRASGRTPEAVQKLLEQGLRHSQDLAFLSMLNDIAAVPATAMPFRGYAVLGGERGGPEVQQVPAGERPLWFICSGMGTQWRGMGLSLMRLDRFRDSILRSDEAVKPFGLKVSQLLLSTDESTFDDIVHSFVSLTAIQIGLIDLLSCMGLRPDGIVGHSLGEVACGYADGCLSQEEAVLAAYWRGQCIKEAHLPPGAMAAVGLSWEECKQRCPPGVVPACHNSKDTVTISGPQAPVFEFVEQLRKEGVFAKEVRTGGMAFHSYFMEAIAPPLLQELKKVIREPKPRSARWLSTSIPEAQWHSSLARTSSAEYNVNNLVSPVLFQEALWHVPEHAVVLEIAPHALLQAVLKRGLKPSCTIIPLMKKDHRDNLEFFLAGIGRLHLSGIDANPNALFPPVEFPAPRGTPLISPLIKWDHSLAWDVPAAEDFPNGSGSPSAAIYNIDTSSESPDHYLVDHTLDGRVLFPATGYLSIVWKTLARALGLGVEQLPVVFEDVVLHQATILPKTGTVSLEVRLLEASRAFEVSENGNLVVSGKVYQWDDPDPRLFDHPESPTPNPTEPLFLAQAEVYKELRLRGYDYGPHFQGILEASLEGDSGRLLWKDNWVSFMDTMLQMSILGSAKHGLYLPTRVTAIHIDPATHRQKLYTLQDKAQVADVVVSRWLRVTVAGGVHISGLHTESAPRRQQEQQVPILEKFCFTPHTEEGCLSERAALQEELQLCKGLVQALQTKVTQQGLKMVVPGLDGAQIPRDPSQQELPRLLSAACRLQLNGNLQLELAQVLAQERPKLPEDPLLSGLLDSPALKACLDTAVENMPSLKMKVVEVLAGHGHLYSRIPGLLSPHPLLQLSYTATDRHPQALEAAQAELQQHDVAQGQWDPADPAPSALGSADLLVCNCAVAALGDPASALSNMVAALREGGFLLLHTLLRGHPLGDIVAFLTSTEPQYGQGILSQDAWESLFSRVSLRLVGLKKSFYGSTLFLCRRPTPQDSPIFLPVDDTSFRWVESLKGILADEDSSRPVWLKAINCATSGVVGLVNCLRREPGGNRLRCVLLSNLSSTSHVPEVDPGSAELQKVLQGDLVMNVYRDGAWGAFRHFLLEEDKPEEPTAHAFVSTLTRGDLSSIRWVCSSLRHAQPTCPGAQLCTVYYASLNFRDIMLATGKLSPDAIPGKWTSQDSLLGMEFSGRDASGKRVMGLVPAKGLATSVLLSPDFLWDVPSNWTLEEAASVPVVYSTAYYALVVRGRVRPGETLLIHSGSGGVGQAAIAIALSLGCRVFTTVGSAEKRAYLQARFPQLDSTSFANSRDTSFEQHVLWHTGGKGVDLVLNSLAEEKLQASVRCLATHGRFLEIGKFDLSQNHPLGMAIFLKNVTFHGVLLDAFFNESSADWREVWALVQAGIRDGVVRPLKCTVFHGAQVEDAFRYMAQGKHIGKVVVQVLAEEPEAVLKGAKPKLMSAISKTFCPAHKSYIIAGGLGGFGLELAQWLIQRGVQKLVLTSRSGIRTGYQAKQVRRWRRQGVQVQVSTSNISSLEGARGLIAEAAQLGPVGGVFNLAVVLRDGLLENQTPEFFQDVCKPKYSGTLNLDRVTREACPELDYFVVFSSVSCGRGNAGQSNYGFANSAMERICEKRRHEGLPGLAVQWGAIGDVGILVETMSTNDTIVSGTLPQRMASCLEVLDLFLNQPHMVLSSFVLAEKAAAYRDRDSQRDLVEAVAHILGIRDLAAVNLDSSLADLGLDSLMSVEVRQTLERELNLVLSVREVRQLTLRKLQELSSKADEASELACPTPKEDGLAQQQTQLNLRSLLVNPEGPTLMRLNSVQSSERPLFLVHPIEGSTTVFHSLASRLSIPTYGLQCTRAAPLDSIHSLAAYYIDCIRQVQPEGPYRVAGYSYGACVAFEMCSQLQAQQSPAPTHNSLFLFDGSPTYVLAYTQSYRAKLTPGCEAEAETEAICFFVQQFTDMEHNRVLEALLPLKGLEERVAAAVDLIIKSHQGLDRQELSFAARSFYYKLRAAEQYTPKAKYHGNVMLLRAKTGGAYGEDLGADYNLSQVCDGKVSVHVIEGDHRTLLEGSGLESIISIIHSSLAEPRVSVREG
# [17] = biological target: T8, Calpain-2 catalytic subunit (Sus scrofa, UniProt P43367); experiment: pig calpain II inhibitor potency, dose response, biochemical, fluorogenic peptide substrate (AID 1420); assay type: functional
# T8 sequence (P43367 whole entry): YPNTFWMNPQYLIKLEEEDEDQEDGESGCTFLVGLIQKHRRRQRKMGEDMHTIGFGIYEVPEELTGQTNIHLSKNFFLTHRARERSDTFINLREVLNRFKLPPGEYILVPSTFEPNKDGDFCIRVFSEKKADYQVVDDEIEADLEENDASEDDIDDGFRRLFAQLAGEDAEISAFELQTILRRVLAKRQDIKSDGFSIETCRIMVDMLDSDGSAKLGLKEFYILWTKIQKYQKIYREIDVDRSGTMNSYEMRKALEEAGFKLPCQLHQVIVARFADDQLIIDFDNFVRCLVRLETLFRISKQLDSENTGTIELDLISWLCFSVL
# [18] = biological target: T7, Fatty acid synthase; experiment: FAS thioesterase domain inhibitors, dose response, biochemical, kinetic fluorescence intensity (AID 624326); assay type: functional;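 note: rate of fluorescence rise from hydrolysis of a fluorogenic O-methyl fluorescein ester substrate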
# [19] = biological target: Induced myeloid leukemia cell differentiation protein Mcl-1 (Homo sapiens, UniProt Q07820); assay type: functional
# Chain of Induced myeloid leukemia cell differentiation protein Mcl-1 (Q07820 whole entry): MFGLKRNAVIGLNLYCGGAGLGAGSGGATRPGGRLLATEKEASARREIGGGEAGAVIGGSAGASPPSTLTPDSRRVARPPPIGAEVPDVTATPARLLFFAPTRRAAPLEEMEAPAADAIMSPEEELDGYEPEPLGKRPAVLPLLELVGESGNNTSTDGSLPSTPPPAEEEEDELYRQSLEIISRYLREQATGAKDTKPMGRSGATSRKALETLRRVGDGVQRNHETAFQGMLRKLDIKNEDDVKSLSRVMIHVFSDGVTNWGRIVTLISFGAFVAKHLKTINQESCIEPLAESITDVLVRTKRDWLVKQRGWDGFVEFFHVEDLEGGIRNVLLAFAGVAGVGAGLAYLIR
structure (smiles),measurement,setting,value
CCN1CCc2c(sc(NC(=O)c3ccc(C(=O)c4ccccc4)cc3)c2C(N)=O)C1,AC50,[1],36.6 µM (active)
COc1cc(N)c2ncccc2c1Cl,IC50,[2],69.4 µM (inactive)
Cc1ccc(C(=O)Nc2nnc(-c3ccncc3)o2)cc1,CC50,[3],> 20 µM (active)
same,IC50,[4],8.2 µM (active)
CCOc1ccccc1N1CCN(C2=C(NS(=O)(=O)c3cccs3)C(=O)c3ccccc3C2=O)CC1,CC50,[5],> 40 µM (active)
O=C(C[C@@H]1C[C@@H]2c3cc(NC(=O)C4CCOCC4)ccc3O[C@@H]2[C@H](CO)O1)NCCc1ccccc1,AC50,[6],37.3 µM (active)
Cc1c(C(=O)N(Cc2ccccc2Cl)C2CCS(=O)(=O)C2)oc2ccccc12 (configuration not stated),IC50,[2],40.3 µM (inactive)
COc1cc([N+](=O)[O-])ccc1-c1ccc(/C=C2\C(=O)ON=C2c2ccccc2)o1,CC50,[5],22.1 µM (active)
CCN(CC)CCCNC(=O)C1CCN(c2ncnc3c2sc2cccc(F)c23)CC1,AC50,[1],52 µM (active)
CCN(CC)C(=O)c1ccc2c(c1)C1C(Cl)C(Sc3ccccc3[N+](=O)[O-])CC1C(C(=O)O)N2 (configuration not stated),EC50,[7],15.4 µM (inconclusive)
same,EC50,[8],17 µM (active)
same,IC50,[9],59.1 µM (active)
same,AC50,[10],4.63 µM (active)
same,IC50,[11],35.4 µM (active)
same,EC50,[12],> 300 µM (inconclusive)
same,IC50,[13],17.7 µM (active)
C=CCNC1=NN=C(c2cc(C)n(CC=C)c2C)CS1,CC50,[5],> 40 µM (active)
CCOCCCN=C(S)Nc1ccc2nc(N3CCCC3)cc(C)c2c1,AC50,[1],100 µM (inactive)
Cc1ccc(C(=O)CNc2cc(C)ccc2C)cc1,EC50,[14],> 40 µM (inactive)
same,IC50,[15],9.85 µM (active)
O=C(CCNc1cccc(Cl)c1)c1ccco1,CC50,[3],18.8 µM (active)
same,IC50,[4],18 µM (active)
Cc1nnc(Sc2cc(NCCO)c([N+](=O)[O-])c3nonc23)s1,EC50,[8],12.4 µM (active)
same,IC50,[16],6.34 µM (active)
same,AC50,[10],19.8 µM (inconclusive)
same,IC50,[17],> 50 µM (not active)
same,IC50,[18],5.35 µM (active)
same,IC50,[19],6.12 µM (active)
same,IC50,[2],> 80 µM (inactive)
Cc1cc(C)nc(NNS(=O)(=O)c2ccc(F)c(Cl)c2)n1,EC50,[14],> 40 µM (inactive)
same,IC50,[15],23.9 µM (not active)
COc1ccc(OCc2nnc3n2N=C(c2ccccc2)C(CC(=O)O)S3)cc1 (configuration not stated),IC50,[2],> 80 µM (inactive)
